Where two headings read alike, the source gives them in different places.
Assays:
[1] = test system: HeLa host cell line; type: cell-based
Protocol: A number of cell culture additives including metals, trace supplements, salts, and others, were tested for their ability to increase production of recombinant adeno-associated virus vector (rAAV) by a HeLa host cell line.

[2] = test system: HeLa host cell line; assay: rAAV yield by qPCR, HeLa host cell line in shaker flasks, glucocorticoid analogs; type: cell-based; conditions: shaker flask, 0.1 and 1 μM, 4 days, FIG. 2
Protocol: FIG. 2 is a bar graph depicting the effect of glucocorticoid analogs on rAAV production from a HeLa producer cell line cultured in a shaker flask. Hydrocortisone (hydr), predinosolone (pred) and dexamethasone (dex) were added at the indicated concentrations and after 4 days rAAV yield (GC/ml) was measured by qPCR. Each value represents the mean of two independent experiments.
DNase-resistant particles (DRP) can be quantified by real-time quantitative polymerase chain reaction (qPCR) (DRP-qPCR) in a thermocycler (for example, an iCycler iQ 96-well block format thermocycler (Bio-Rad, Hercules, Calif.)). Samples containing rAAV particles are incubated in the presence of DNase I (100 U/ml; Promega, Madison, Wis.) at 37° C. for 60 min, followed by proteinase K (Invitrogen, Carlsbad, Calif.) digestion (10 U/ml) at 50° C. for 60 min, and then denatured at 95° C. for 30 min. The primer-probe set used should be specific to a non-native portion of the rAAV vector genome, for example, the poly(A) sequence of the protein of interest. […]
Stock solutions of dexamethasone (dex), prednisolone (pred), and hydrocortisone (hydr) dissolved in DMSO were added to the cell culture to final concentrations of 0.1 and 1 μM. After 4 days, rAAV yield was determined by measuring both the secreted (extracellular) and total rAAV in the cell culture harvest by qPCR.

SMILES: [Fe] [iron]
- impact on rAAV yield ([1]; iron concentration increased from 0.1 mg/L to 10 mg/L): No or minimal impact

SMILES: [Mg+2] [magnesium]
- impact on rAAV yield ([1]; magnesium concentration increased from 1 mg/L to 30 mg/L): slightly negative impact

SMILES: NCCCNCCCCNCCCN [spermine]
- effect on rAAV yield [1]: negative effect

SMILES: [Ca+2] [calcium]
- media precipitation ([1]; calcium concentrations higher than 0.19 g/L): causing media precipitation
- impact on rAAV yield ([1]; supplementation with 0.19 g/L of calcium): minimal impact

SMILES: C[C@]12CCC(=O)C=C1CC[C@@H]1[C@@H]2[C@@H](O)C[C@@]2(C)[C@H]1CC[C@]2(O)C(=O)CO [hydrocortisone]
- rAAV yield (extracellular and total) [2]: increased rAAV yield

SMILES: [Cu] [copper]
- impact on rAAV yield ([1]; copper concentration increased from 0.1 μM to 10 μM): No or minimal impact

SMILES: NCCCCN [putrescine]
- effect on rAAV yield [1]: negative effect

SMILES: C[C@]12C=CC(=O)C=C1CC[C@@H]1[C@@H]2[C@@H](O)C[C@@]2(C)[C@H]1CC[C@]2(O)C(=O)CO [prednisolone]
- rAAV yield (extracellular and total) [2]: increased rAAV yield

From patent US20190290710A1, “USE OF GLUC[…] TO ENHANCE RECOMBINANT ADENO-[…] YIELD” (priority 2016, published 2019)
